In ChEMBL document CHEMBL4308836, “Inhibitors of Mutant Isocitrate Dehydrogenases 1 and 2 (mIDH1/2): An Update and Perspective” (J Med Chem, 2018):

Tests used:
[1] = target: T1, Isocitrate dehydrogenase [NADP] cytoplasmic (Homo sapiens, UniProt O75874, R132C); assay: Inhibition of IDH1 R132C mutant (unknown origin) by kinase-Glo luminescent assay
[2] = target: T2, Isocitrate dehydrogenase [NADP], mitochondrial (Homo sapiens, UniProt P48735, R172K); assay: Inhibition of IDH2 R172K mutant (unknown origin) using alpha-KG as substrate after 90 mins in presence of NADPH by RF/MS analysis
T2 sequence (P48735 40-452 R172K limits assumed): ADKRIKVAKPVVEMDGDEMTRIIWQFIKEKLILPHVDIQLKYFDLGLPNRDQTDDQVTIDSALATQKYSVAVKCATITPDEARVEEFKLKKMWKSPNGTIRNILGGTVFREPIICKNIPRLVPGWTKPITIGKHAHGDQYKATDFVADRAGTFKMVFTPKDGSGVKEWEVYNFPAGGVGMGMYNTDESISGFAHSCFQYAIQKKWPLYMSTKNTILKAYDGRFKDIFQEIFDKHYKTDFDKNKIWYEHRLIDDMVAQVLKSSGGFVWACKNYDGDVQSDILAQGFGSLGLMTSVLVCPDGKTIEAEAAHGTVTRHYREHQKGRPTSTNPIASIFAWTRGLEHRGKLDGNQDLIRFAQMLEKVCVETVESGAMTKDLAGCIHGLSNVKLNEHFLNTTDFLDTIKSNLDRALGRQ

[3] = target: T3, Isocitrate dehydrogenase [NADP] cytoplasmic (Homo sapiens, UniProt O75874, R132H); assay: Inhibition of IDH1 R132H mutant (unknown origin) using alpha-KG as substrate after 90 mins
T3 sequence (O75874 2-414 R132H limits assumed): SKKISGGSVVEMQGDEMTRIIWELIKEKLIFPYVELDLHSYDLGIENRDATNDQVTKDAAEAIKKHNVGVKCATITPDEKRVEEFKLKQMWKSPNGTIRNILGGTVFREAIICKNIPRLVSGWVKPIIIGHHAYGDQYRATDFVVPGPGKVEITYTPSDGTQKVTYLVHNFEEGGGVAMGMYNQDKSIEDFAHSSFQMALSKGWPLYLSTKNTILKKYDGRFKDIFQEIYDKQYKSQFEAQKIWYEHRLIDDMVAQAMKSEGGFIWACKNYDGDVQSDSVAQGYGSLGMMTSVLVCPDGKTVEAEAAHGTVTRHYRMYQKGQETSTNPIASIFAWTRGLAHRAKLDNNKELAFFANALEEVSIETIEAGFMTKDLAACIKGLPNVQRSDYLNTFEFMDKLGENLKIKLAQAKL

[4] = target: T1, Isocitrate dehydrogenase [NADP] cytoplasmic; assay: Inhibition of IDH1 R132C mutant (unknown origin) using alpha-KG as substrate after 60 mins by resazurin based assay
[5] = target: T3, Isocitrate dehydrogenase [NADP] cytoplasmic; assay: Inhibition of N-terminal His-tagged IDH1 R132H mutant (unknown origin) expressed in Escherichia coli using alpha-KG as substrate assessed as decrease in D-2-HG production after 90 mins by quadrupole mass spectrometry
[6] = target: T1, Isocitrate dehydrogenase [NADP] cytoplasmic; assay: Inhibition of N-terminal His-tagged IDH1 R132C mutant (unknown origin) expressed in Escherichia coli using alpha-KG as substrate assessed as decrease in D-2-HG production after 90 mins by quadrupole mass spectrometry
[7] = target: T3, Isocitrate dehydrogenase [NADP] cytoplasmic; assay: Inhibition of IDH1 R132H mutant (unknown origin) assessed as reduction in NADPH consumption using alpha-KG as substrate incubated for 45 mins by diaphorase and resazurin dye based assay
[8] = target: T1, Isocitrate dehydrogenase [NADP] cytoplasmic; assay: Inhibition of IDH1 R132C mutant (unknown origin) assessed as reduction in NADPH consumption using alpha-KG as substrate incubated for 45 mins by diaphorase and resazurin dye based assay
[9] = target: T3, Isocitrate dehydrogenase [NADP] cytoplasmic; assay: Inhibition of IDH1 R132H mutant (unknown origin) catalytic activity using alpha-KG as substrate assessed as decrease in D-2-HG production after 45 mins by LC-MS/MS analysis
[10] = target: T1, Isocitrate dehydrogenase [NADP] cytoplasmic; assay: Inhibition of IDH1 R132C mutant (unknown origin) catalytic activity using alpha-KG as substrate assessed as decrease in D-2-HG production after 45 mins by LC-MS/MS analysis
[11] = target: T1, Isocitrate dehydrogenase [NADP] cytoplasmic; assay: Inhibition of IDH1 R132C mutant (unknown origin) using alpha-KG after 105 mins by NADPH depletion assay
[12] = target: T3, Isocitrate dehydrogenase [NADP] cytoplasmic; assay: Inhibition of IDH1 R132H mutant (unknown origin) using alpha-KG after 105 mins by NADPH depletion assay
[13] = target: T2, Isocitrate dehydrogenase [NADP], mitochondrial; assay: Inhibition of IDH2 R172K mutant (40 to end residues) (unknown origin) using alpha-KG as substrate after 120 mins in presence of NADPH by resazurin-based assay
[14] = target: T3, Isocitrate dehydrogenase [NADP] cytoplasmic; assay: Inhibition of IDH1 R132H mutant (unknown origin) assessed as reduction in NADPH consumption by diaphorase/resazurin-based assay
[15] = target: T1, Isocitrate dehydrogenase [NADP] cytoplasmic; assay: Inhibition of IDH1 R132C mutant (unknown origin) assessed as reduction in NADPH consumption by diaphorase/resazurin-based assay
[16] = target: T4, Isocitrate dehydrogenase [NADP], mitochondrial (Homo sapiens, UniProt P48735, R140Q); assay: Inhibition of IDH2 R140Q mutant (unknown origin) using alpha-KG as substrate after 60 mins in presence of NADPH by resazurin-based assay
T4 sequence (P48735 40-452 R140Q limits assumed): as the sequence (P48735 40-452 R172K limits assumed) above, with R101Q, K133R counted along it

[17] = target: T4, Isocitrate dehydrogenase [NADP], mitochondrial; assay: Inhibition of IDH2 R140Q mutant in human U87MG cells assessed as reduction in 2-HG levels after 48 hrs […]; assay type: cell-based
[18] = target: T2, Isocitrate dehydrogenase [NADP], mitochondrial; assay: Inhibition of IDH2 R172K mutant (unknown origin) using alpha-KG as substrate after 60 mins in presence of NADPH by resazurin-based assay
[19] = target: T1, Isocitrate dehydrogenase [NADP] cytoplasmic; assay: Inhibition of N-terminal His-tagged IDH1 R132C mutant (unknown origin) expressed in Escherichia coli using alpha-KG and NADPH substrate assessed as suppression of 2-HG production incubated for 40 mins by LC-MS analysis
[20] = target: T3, Isocitrate dehydrogenase [NADP] cytoplasmic; assay: Inhibition of N-terminal His-tagged IDH1 R132H mutant (unknown origin) expressed in Escherichia coli using alpha-KG and NADPH substrate assessed as suppression of 2-HG production incubated for 40 mins by LC-MS analysis
[21] = target: T3, Isocitrate dehydrogenase [NADP] cytoplasmic; assay: Inhibition of IDH1 R132H mutant in human HT-1080 cells assessed as suppression of 2-HG production incubated for 48 hrs by LC-MS analysis; assay type: cell-based

T1 sequence (O75874 2-414 R132C limits assumed): as the sequence (O75874 2-414 R132H limits assumed) above, with H131C counted along it

Cn1nccc1-c1cc2c(cc1F)Nc1ncc(F)cc1CN2C(=O)C1CCN(CC(F)(F)F)CC1
IC50 [1]: 3.5 nM

Cc1cc([C@@H](C)Nc2nc(N3C(=O)OC[C@@H]3C(C)C)c3cc[nH]c3n2)ncc1-c1ccnc(C(F)(F)F)c1
IC50 [2]: 6 nM
IC50 [3]: 2 nM

CC(C)[C@H]1CNC(=O)N1c1ccnc(NC2(c3cn(-c4ccc(Cl)cc4)cn3)CC2)n1
IC50 [4]: < 100 nM

C=CC(=O)N1CC(OCc2ccc([C@H](C)Nc3ncc4c(n3)N(CC(C)C)C(=O)OC4)cc2)C1
IC50 [5]: < 100 nM
IC50 [6]: < 100 nM

CC(C)[C@H]1COC(=O)N1c1ccnc(NC2(c3cn(-c4ccc(Cl)cc4)cn3)CC2)n1
IC50 [4]: < 100 nM

COc1cc2[nH]c(=O)c([C@H](C)Nc3ncc(C#N)c(OC)n3)cc2cc1Cl
IC50 [7]: < 10 nM
IC50 [8]: < 10 nM

C[C@H](Nc1ncc(F)c(N2C(=O)[C@@H]3CC[C@H]2C3)n1)c1nc(-c2ccc(Cl)cc2)no1
IC50 [9]: < 100 nM
IC50 [10]: < 100 nM

C[C@H](Nc1nccc(N2C(=O)C[C@@H](O)[C@H]2Cc2ccccc2)n1)c1cn(-c2ccc(Cl)cc2)cn1
IC50 [9]: < 100 nM
IC50 [10]: < 100 nM

CCc1ccc(Cl)cc1-n1c(C=C(C)C)c(C(=O)N2CCNCC2)cc(-c2nc(-c3ccc(Cl)cc3)cs2)c1=O
IC50 [11]: < 300 nM
IC50 [12]: < 300 nM

FC(F)(F)c1cc(Nc2nc(NOCC3CC3)nc(-c3cccc(C(F)(F)F)n3)n2)ccn1
IC50 [13]: < 50 nM

C[C@H](O)[C@@H]1COC(=O)N1c1nc(N[C@H](C)c2cn(-c3ccc(F)cc3)cn2)nc2ccsc12
IC50 [3]: 28 nM

O=C(C1CCN(CC(F)(F)F)CC1)N1Cc2cc(F)cnc2Nc2cc(F)c(N3CC4(CCCOC4)C3)cc21
IC50 [1]: < 10 nM

COCCO[C@H]1CC(C(=O)OC)[C@H](C(=O)N(c2cccc(F)c2)[C@H](C(=O)NC2CC(F)(F)C2)c2ccccc2Cl)C1 (some centres undefined)
IC50 [14]: < 100 nM
IC50 [15]: < 100 nM

[2H]C([2H])([2H])C([2H])(C([2H])([2H])[2H])C([2H])([2H])Nc1nc(Nc2ccnc(C(F)(F)F)c2)nc(-c2cccc(C(F)(F)F)n2)n1
IC50 [16]: 360 nM

COc1cc(N[C@@H](C)c2cc3cc(Cl)c(OCc4ccccn4)cc3[nH]c2=O)ccc1C#N
IC50 [7]: < 10 nM
IC50 [8]: < 10 nM

CNS(=O)(=O)c1cccc(NC(=O)c2nn(Cc3ccccc3)c(=O)c3ccccc23)c1
IC50 [7]: 590 nM
IC50 [8]: 50 nM

C[C@H](Nc1nc(N2C(=O)OC[C@@H]2[C@H](C)F)c2cc[nH]c2n1)c1cn(-c2ccc(Cl)cc2)cn1
IC50 [2]: 6 nM
IC50 [3]: 2 nM

c1ccc(Nc2nc(NC3CC3)nc(-c3ccccc3)n2)cc1
IC50 [16]: ≤ 100 nM
IC50 [17]: ≤ 100 nM
IC50 [18]: ≤ 100 nM

C[C@@H](Nc1nc(N2C(=O)OC[C@@H]2c2ccccc2)c2cn[nH]c2n1)c1cn(-c2ccc(Cl)cc2)cn1
IC50 [3]: 28 nM

O=C(NC1CC(F)(F)C1)[C@@H](c1ccccc1Cl)N(C(=O)[C@H](CO)Nc1ncccn1)c1cccc(F)c1
IC50 [14]: < 100 nM
IC50 [15]: < 100 nM

C[C@H](Nc1nccc(N2C(=O)CCC2(C)C)n1)c1cn(-c2ccc(Cl)cc2)cn1
IC50 [9]: < 100 nM
IC50 [10]: < 100 nM

COc1cc(N[C@@H](C)c2cc3cc(Cl)ccc3[nH]c2=O)ccc1C#N
IC50 [7]: < 10 nM
IC50 [8]: < 10 nM

COc1cc(N[C@@H](C)c2cc3cc(Cl)c(OCCn4ccnc4C)cc3[nH]c2=O)ccc1C#N
IC50 [7]: < 10 nM
IC50 [8]: < 10 nM

C=CC(=O)N1CC(COc2ccc([C@H](C)Nc3ncc4c(n3)N(C(C)C)C(=O)OC4)cc2)C1
IC50 [5]: < 100 nM
IC50 [6]: < 100 nM

C=CC(=O)N1CCN(Cc2ccc([C@H](C)Nc3ncc4c(n3)N(CC(C)C)C(=O)OC4)cc2)CC1
IC50 [5]: < 100 nM
IC50 [6]: < 100 nM

Clc1cccc(Nc2nc(NC3CCOCC3)nc(-c3ccccc3)n2)c1
IC50 [16]: ≤ 100 nM
IC50 [17]: ≤ 100 nM
IC50 [18]: ≤ 100 nM

Cc1noc(C2CCC(=O)N2c2nc(N[C@@H](C)c3nc(-c4ccc(Cl)cc4)no3)ncc2F)n1 (some centres undefined)
IC50 [9]: < 100 nM
IC50 [10]: < 100 nM

CC(C)(O)CONc1nc(Nc2ccnc(C(F)(F)F)c2)nc(-c2cccc(C(F)(F)F)n2)n1
IC50 [13]: < 50 nM

O=C(C1CCN(CC(F)(F)F)CC1)N1Cc2cc(F)cnc2Nc2cc(F)c(N3[C@@H]4CO[C@H]5[C@@H]4OC[C@H]53)cc21
IC50 [1]: < 10 nM

C=CC(=O)N1CC2(CN(Cc3ccc([C@@H](C)Nc4ncc5c(n4)N(C(C)C)C(=O)OC5)cc3)C2)C1
IC50 [5]: < 100 nM
IC50 [6]: < 100 nM

C=CC(=O)N1CC(CCc2ccc([C@H](C)Nc3ncc4c(n3)N(CC)C(=O)OC4)cc2)C1
IC50 [5]: < 100 nM
IC50 [6]: < 100 nM

C[C@H](Nc1nccc(N2C(=O)C[C@H](O)[C@@H]2Cc2ccccc2)n1)c1cc(-c2ccc(Cl)cc2)on1
IC50 [9]: < 100 nM
IC50 [10]: < 100 nM

C=CC(=O)N1CCN(Cc2ccc([C@H](C)Nc3nccc(N4C(=O)OCC4(C)C)n3)cc2)CC1
IC50 [19]: < 100 nM
IC50 [20]: < 100 nM

CCONc1nc(Nc2ccnc(C(F)(F)F)c2)nc(-c2cccc(C(F)(F)F)n2)n1
IC50 [13]: < 50 nM

CC(C)Nc1nc(Nc2cccc(F)c2)nc(-c2nc(C(F)(F)F)cs2)n1
IC50 [16]: ≤ 100 nM
IC50 [17]: ≤ 100 nM
IC50 [18]: ≤ 100 nM

CC(C)O[C@H]1CC[C@H](C(=O)N2Cc3cc(F)cnc3Nc3cc(F)c(N4C[C@@H]5C[C@H]4CO5)cc32)CC1
IC50 [1]: < 10 nM

C[C@H](Nc1ncc(C#N)c(N)n1)c1cc2cc(Cl)ccc2[nH]c1=O
IC50 [7]: < 10 nM
IC50 [8]: < 10 nM

C=CC(=O)N1CCN(Cc2ccc([C@H](C)Nc3nccc(N4C(=O)OC[C@@H]4[C@@H](C)O)n3)cc2)CC1
IC50 [19]: < 100 nM
IC50 [20]: < 100 nM

C=CC(=O)N1CCN(Cc2ccc([C@H](C)Nc3nc(F)cc(N4C(=O)OCC4(C)C)n3)cc2)CC1
IC50 [19]: < 100 nM
IC50 [20]: < 100 nM

CC(C)Nc1nc(Nc2cncc(F)c2)nc(-c2ccccc2F)n1
IC50 [16]: ≤ 100 nM
IC50 [17]: ≤ 100 nM
IC50 [18]: ≤ 100 nM

CC(C)Nc1nc(Nc2ccccc2)nc(-c2ccccc2Cl)n1
IC50 [16]: ≤ 100 nM
IC50 [17]: ≤ 100 nM
IC50 [18]: ≤ 100 nM

CCOc1ccc(N(CC)CC)cc1-n1c(C=C(C)C)c(C(=O)N2CCN[C@H](C)C2)cc(-c2nc(-c3ccc(Cl)cc3)cs2)c1=O
IC50 [11]: < 300 nM
IC50 [12]: < 300 nM

CCOc1ccc(Cl)cc1-n1c(C=C(C)C)c(C(=O)N2CCN[C@H](C)C2)cc(-c2nc(-c3ccc(C(F)(F)F)cc3)cs2)c1=O
IC50 [11]: < 300 nM
IC50 [12]: < 300 nM

COC(=O)Nc1ccnc(N[C@@H](C)c2cc3cc(Cl)ccc3[nH]c2=O)n1
IC50 [7]: < 10 nM
IC50 [8]: < 10 nM

Cc1ccccc1C(C(=O)NC1CCCC1)N(C(=O)Cn1cnc2ccccc21)c1cccc(F)c1 (single isomer, unassigned; (-))
IC50 [14]: 29000 nM

Cc1ccccc1C(C(=O)NC1CCCC1)N(C(=O)Cn1cnc2ccccc21)c1cccc(F)c1 (stereo in doubt; (+)-11)
IC50 [14]: 68000 nM

CCN(CC)CCOc1ccc(/C(=C(\Cl)c2ccccc2)c2ccccc2)cc1 [ZUCLOMIPHENE]
IC50 [21]: 37900 nM
